Experiments:
Format in all cases: cell-based
MOLT-4 = experiment: SRB growth assay, MOLT-4; settings: Homo sapiens, MOLT-4 (Leukemia), 48 hours, read-out: Percent viability
Text: (§1) Tested cell lines included, Leukemia: CCRF-CEM, HL-60(TB), MOLT-4, RPMI-8226 and SR; Non-Small Cell Lung: A549/ATCC, EKVX, HOP-62, HOP-92, NCI-H226, NCI-H23, NCI-H322M, NCI-H460 and NCI-H522; Colon: COLO 205, HCC-2998, HCT-116, HCT-15. HT29, KM12 and SW-620; CNS: SF-268, SF-295, SF-539, SNB-19, SNB-75 and U251; Melanoma: LOX IMVI, MALME-3M, M14, MDA-MB-435, SK-MEL-2, SK-MEL-28, SK-MEL-5, UACC-257 and UACC-62; Ovarian: IGR-OV1, OVCAR-3, OVCAR-4, OVCAR-5, OVCAR-8. NCI/ADR-RES and SK-OV-3; Renal: 786-0, A498, ACHN, CAKI-1, RXF 393, SN12C, TK-10 and UO-31; Prostate: DU-145 and PC-3; and Breast: MCF7, MDA-MB-231/ATCC, MDA-MB-468, HS 578T, BT-549 and T-47D.
(§2) The cells were cultured in RPMI1640 media supplemented with 10% Fetal Bovine Serum (FBS), 2 mM glutamine and with 5% CO2 and 37° C. For experiment, 5% of FBS and 50 ug/mL of gentamycin were used. Test articles were 10 μM of NUCL 381-3 or 10 μM NUCL 383-3. The positive control was 10 μM of doxorubicin.
(§3) Cells were plated in 96 well plates. The cells were plated in triplicate. Cells were plated at the densities based on NCI recommendation. Time zero cells (Tz) were fixed the following day with 50% or 80% ice cold Trichloracetic acid (TCA) and washed 5× with water. At 48 hours post addition of treatments, all remaining plates were fixed in 80% ice cold Trichloracetic acid (TCA) and washed 5× with water. After drying, one hundred microliters of 0.4% Sulphorhodamine B (SRB) in 1% acetic acid was added to each plate including the Tzero plate and incubated for 10 minutes at room temperature. After 5 additional washes with 1% acetic acid, plates were allowed to dry. One hundred microliters of Trizma base was added to each well and plates were read at 515 nm.
(§4) Percent of growth was calculated by the following formulas: [Ti/C]×100, where: Tz=absorbance readings for wells at time zero without treatment; C=absorbance readings of untreated cells (without treatment); and Ti=absorbance reading of wells with treatment.

SR = experiment: SRB growth assay, SR; settings: Homo sapiens, SR (Leukemia), 48 hours, read-out: Percent viability
Text: as §1, §2, §3, §4

A549 = experiment: SRB growth assay, A549; settings: Homo sapiens, A549 (Non-Small Cell Lung), 48 hours, read-out: Percent viability
Text: as §1, §2, §3, §4

EKVX = experiment: SRB growth assay, EKVX; settings: Homo sapiens, EKVX (Non-Small Cell Lung), 48 hours, read-out: Percent viability
Text: as §1, §2, §3, §4

NCI-H23 = experiment: SRB growth assay, NCI-H23; settings: Homo sapiens, NCI-H23 (Non-Small Cell Lung), 48 hours, read-out: Percent viability
Text: as §1, §2, §3, §4

NCI-H460 = experiment: SRB growth assay, NCI-H460; settings: Homo sapiens, NCI-H460 (Non-Small Cell Lung), 48 hours, read-out: Percent viability
Text: as §1, §2, §3, §4

COLO 205 = experiment: SRB growth assay, COLO 205; settings: Homo sapiens, COLO 205 (Colon), 48 hours, read-out: Percent viability
Text: as §1, §2, §3, §4

HCC-2998 = experiment: SRB growth assay, HCC-2998; settings: Homo sapiens, HCC-2998 (Colon), 48 hours, read-out: Percent viability
Text: as §1, §2, §3, §4

SW-620 = experiment: SRB growth assay, SW-620; settings: Homo sapiens, SW-620 (Colon), 48 hours, read-out: Percent viability
Text: as §1, §2, §3, §4

SF-295 = experiment: SRB growth assay, SF-295; settings: Homo sapiens, SF-295 (CNS), 48 hours, read-out: Percent viability
Text: as §1, §2, §3, §4

U251 = experiment: SRB growth assay, U251; settings: Homo sapiens, U-251, U251 (CNS), 48 hours, read-out: Percent viability
Text: as §1, §2, §3, §4

M14 = experiment: SRB growth assay, M14; settings: Homo sapiens, M14 (Melanoma), 48 hours, read-out: Percent viability
Text: as §1, §2, §3, §4

SK-MEL-28 = experiment: SRB growth assay, SK-MEL-28; settings: Homo sapiens, SK-MEL-28 (Melanoma), 48 hours, read-out: Percent viability
Text: as §1, §2, §3, §4

SK-MEL-5 = experiment: SRB growth assay, SK-MEL-5; settings: Homo sapiens, SK-MEL-5 (Melanoma), 48 hours, read-out: Percent viability
Text: as §1, §2, §3, §4

UACC-257 = experiment: SRB growth assay, UACC-257; settings: Homo sapiens, UACC-257 (Melanoma), 48 hours, read-out: Percent viability
Text: as §1, §2, §3, §4

UACC-62 = experiment: SRB growth assay, UACC-62; settings: Homo sapiens, UACC-62 (Melanoma), 48 hours, read-out: Percent viability
Text: as §1, §2, §3, §4

SK-OV-3 = experiment: SRB growth assay, SK-OV-3; settings: Homo sapiens, SK-OV-3 (Ovarian), 48 hours, read-out: Percent viability
Text: as §1, §2, §3, §4

786-0 = experiment: SRB growth assay, 786-0; settings: Homo sapiens, 786-0 (Renal), 48 hours, read-out: Percent viability
Text: as §1, §2, §3, §4

SN12C = experiment: SRB growth assay, SN12C; settings: Homo sapiens, SN12C (Renal), 48 hours, read-out: Percent viability
Text: as §1, §2, §3, §4

TK-10 = experiment: SRB growth assay, TK-10; settings: Homo sapiens, TK-10 (Renal), 48 hours, read-out: Percent viability
Text: as §1, §2, §3, §4

UO-31 = experiment: SRB growth assay, UO-31; settings: Homo sapiens, UO-31 (Renal), 48 hours, read-out: Percent viability
Text: as §1, §2, §3, §4

MDA-MB-231 = experiment: SRB growth assay, MDA-MB-231; settings: Homo sapiens, MDA-MB-231 (Breast), 48 hours, read-out: Percent viability
Text: as §1, §2, §3, §4

MDA-MB-468 = experiment: SRB growth assay, MDA-MB-468; settings: Homo sapiens, MDA-MB-468 (Breast), 48 hours, read-out: Percent viability
Text: as §1, §2, §3, §4

SMILES	viability at 10 µM (MOLT-4)	viability at 10 µM (SR)	viability at 10 µM (A549)	viability at 10 µM (EKVX)	viability at 10 µM (NCI-H23)	viability at 10 µM (NCI-H460)	viability at 10 µM (COLO 205)	viability at 10 µM (HCC-2998)	viability at 10 µM (SW-620)	viability at 10 µM (SF-295)	viability at 10 µM (U251)	viability at 10 µM (M14)	viability at 10 µM (SK-MEL-28)	viability at 10 µM (SK-MEL-5)	viability at 10 µM (UACC-257)	viability at 10 µM (UACC-62)	viability at 10 µM (SK-OV-3)	viability at 10 µM (786-0)	viability at 10 µM (SN12C)	viability at 10 µM (TK-10)	also measured
COc1cccc2c1C(=O)c1c(O)c3c(c(O)c1C2=O)C[C@@](O)(C(=O)CO)C[C@@H]3O[C@H]1C[C@H](N)[C@H](O)[C@H](C)O1 [Doxorubicin, reference compound]	30.4%	11.1%	86.8%	35.5%	27.6%	35%	2.33%	20.9%	19%	11.2%	22%	25.5%	29.7%	7.01%	100%	4.85%	47.8%	17.6%	45.4%	35.9%	viability at 10 µM (UO-31): 28.2%; viability at 10 µM (MDA-MB-231): 41.8%; viability at 10 µM (MDA-MB-468): 45.8%
FC(F)(F)c1cn(CC2CCNCC2)c2ncnc(Cl)c12 [NUCC-0000381]	75.5%	16.7%	28.2%	57.5%	42.3%	26.4%	79.5%	93.5%	27.2%	44.4%	15.1%	96.2%	93.3%	100%	87.2%	46.3%	56.5%	94.2%	42.1%	88.5%	viability at 10 µM (UO-31): 19.7%; viability at 10 µM (MDA-MB-231): 48.5%; viability at 10 µM (MDA-MB-468): 102%
CS(=O)(=O)N1CCC(Cn2cc(C(F)(F)F)c3c(Cl)ncnc32)CC1 [NUCC-0000383]	17.9%	37%	100%	84.6%	46.1%	69.1%	93%	73.2%	25.7%	56.2%	2.47%	78.5%	4.54%	6.11%	74.7%	8.26%	74.2%	69.5%	25.8%	73.9%	viability at 10 µM (UO-31): 3.37%; viability at 10 µM (MDA-MB-231): 33.9%; viability at 10 µM (MDA-MB-468): 93.8%
